Reference: patent publication US9221756B2, “Pyrrole derivatives” (priority 2011, dated 2015)

What was measured:
pneumolysin [1] = target: T1, pneumolysin (Streptococcus pneumoniae serotype 2, UniProt Q04IN8); assay: Inhibition of the haemolytic activity of pneumolysin (sheep erythrocytes); type: cell-based
[2] = target: T2, S. pneumoniae cell lysate containing native pneumolysin (Streptococcus pneumoniae serotype 2, UniProt Q04IN8); assay: Ex vivo meningitis assay: effect of bacterial lysate on ciliary function of cultured ependymal cells; type: cell-based; details: rat ependymal cells; lysate from penicillin-lysed S. pneumoniae; FIG. 2.B
T2 construct: S. pneumoniae cell lysate containing native pneumolysin; endogenous in cells
T2 sequence (Q04IN8 whole entry): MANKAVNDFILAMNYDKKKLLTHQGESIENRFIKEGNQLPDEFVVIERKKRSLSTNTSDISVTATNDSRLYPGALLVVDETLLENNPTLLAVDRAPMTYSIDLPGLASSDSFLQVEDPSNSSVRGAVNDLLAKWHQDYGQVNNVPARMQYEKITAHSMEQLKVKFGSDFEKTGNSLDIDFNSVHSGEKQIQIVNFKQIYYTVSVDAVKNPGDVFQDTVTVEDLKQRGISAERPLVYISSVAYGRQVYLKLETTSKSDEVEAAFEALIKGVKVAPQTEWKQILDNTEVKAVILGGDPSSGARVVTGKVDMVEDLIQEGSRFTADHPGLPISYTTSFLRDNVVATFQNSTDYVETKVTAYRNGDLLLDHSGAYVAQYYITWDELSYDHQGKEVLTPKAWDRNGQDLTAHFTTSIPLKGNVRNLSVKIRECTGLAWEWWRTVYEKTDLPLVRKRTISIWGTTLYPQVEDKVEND
Description: (§1) The ependymal ciliated cells line the cerebral ventricles of the brain and the central canal of the spinal cord and are covered with cilia responsible for the circulation of the cerebrospinal fluid (CSF) around the central nervous system. This layer acts as a selective brain barrier to and from the cerebrospinal fluid and plays a role in controlling the CSF volume. […] This model is based on culturing and differentiating ciliated ependymal cells from neonate rat brains, which recreate the in vivo situation, where cells lining the brain ventricles, are exposed to S. pneumoniae and its toxic products.
(§2) Ependymal cell cultures were prepared by the method previously described [Microb. Pathog. (1999) 27 303-309]. Tissue culture trays were coated with bovine fibronectin and incubated at 37° C. in 5% (v/v) CO2 for 2 h before use. […]
(§3) After approximately two weeks, the cells were fully ciliated and ready for experiments. […] Beating cilia were recorded before and after exposure over 30 min, with a digital high-speed video camera at a rate of 500 frames/s. The recorded video sequences were played back at reduced frame rates and the ciliary beat frequency (CBF) was determined by the following equation: […]

Perfringolysin O (PFO) = Perfringolysin O (PFO) (Clostridium perfringens, UniProt P0C2E9); assay: cell-based
Chain of Perfringolysin O (PFO) (P0C2E9 29-500 limits assumed): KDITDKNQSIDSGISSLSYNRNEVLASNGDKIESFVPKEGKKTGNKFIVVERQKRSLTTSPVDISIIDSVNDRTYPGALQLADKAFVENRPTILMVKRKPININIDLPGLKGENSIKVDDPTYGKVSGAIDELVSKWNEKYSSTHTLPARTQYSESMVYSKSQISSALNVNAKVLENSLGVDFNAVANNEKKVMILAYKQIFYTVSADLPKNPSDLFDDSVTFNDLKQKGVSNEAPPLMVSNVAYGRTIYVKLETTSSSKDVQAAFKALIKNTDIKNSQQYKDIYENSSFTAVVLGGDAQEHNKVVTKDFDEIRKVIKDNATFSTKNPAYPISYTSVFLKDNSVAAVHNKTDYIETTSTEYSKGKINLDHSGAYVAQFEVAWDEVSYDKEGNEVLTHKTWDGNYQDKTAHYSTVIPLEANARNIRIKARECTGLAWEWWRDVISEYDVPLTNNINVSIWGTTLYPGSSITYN

Streptolysin O (SLO) = target: T3, Streptolysin O (SLO) (Streptococcus pyogenes serotype M3, UniProt P0DF97); assay: Inhibition of the haemolytic activity of Streptolysin O; type: cell-based, Group A Streptococci; details: toxin SLO; haemolysis assay protocol of Section A
T3 sequence (P0DF97 34-571): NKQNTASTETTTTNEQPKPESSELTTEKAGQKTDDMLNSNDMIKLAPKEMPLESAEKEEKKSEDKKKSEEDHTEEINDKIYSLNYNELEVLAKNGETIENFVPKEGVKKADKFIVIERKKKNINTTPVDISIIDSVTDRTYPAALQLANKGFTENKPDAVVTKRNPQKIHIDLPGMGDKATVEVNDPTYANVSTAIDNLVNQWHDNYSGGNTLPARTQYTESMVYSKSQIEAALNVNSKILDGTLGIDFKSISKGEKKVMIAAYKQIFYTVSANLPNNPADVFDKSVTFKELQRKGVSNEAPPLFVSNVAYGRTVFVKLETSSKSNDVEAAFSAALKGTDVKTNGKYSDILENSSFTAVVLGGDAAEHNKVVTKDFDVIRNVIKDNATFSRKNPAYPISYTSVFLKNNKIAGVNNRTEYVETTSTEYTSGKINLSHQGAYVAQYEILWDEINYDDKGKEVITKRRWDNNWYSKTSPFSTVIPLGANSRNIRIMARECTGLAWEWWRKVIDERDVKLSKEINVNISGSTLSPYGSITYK

[3] = system: Streptococcus pneumoniae strain D39; assay: In vivo efficacy assay using a mouse pneumonia model; details: MF1 mice
pneumolysin [4] = target: T1, pneumolysin; assay: Ex vivo meningitis assay: effect of pneumolysin on ciliary function of cultured ependymal cells; type: cell-based; details: rat ependymal cells
Description: as §1, §2, §3

pneumolysin [5] = target: T1, pneumolysin; assay: Inhibition of pneumolysin-induced lactate dehydrogenase release from A549 cells; type: cell-based
[6] = system: Human lung epithelial cells (A549); details: concentrations tested, up to approximately 150 times the therapeutic IC50 value
Listeriolysin O (LLO) = Listeriolysin O (LLO) (Listeria monocytogenes serovar 1/2a, UniProt P13128); assay: Inhibition of the haemolytic activity of Listeriolysin O; type: cell-based; details: toxin LLO; haemolysis assay protocol of Section A
Chain of Listeriolysin O (LLO) (P13128 25-529): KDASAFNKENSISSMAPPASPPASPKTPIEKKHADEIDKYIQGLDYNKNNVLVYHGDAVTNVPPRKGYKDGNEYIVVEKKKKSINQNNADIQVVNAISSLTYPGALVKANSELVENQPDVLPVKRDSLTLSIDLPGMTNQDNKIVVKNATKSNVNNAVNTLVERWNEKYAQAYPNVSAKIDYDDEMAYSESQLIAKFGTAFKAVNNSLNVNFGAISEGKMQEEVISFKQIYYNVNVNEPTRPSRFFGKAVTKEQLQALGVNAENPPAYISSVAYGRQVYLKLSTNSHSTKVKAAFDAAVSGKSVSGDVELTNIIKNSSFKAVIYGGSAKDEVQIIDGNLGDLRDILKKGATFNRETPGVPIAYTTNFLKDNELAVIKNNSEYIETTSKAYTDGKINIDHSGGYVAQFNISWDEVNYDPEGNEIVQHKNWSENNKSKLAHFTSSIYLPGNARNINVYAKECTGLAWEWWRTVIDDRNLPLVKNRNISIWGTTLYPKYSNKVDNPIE

Suilysin (SLY) = Suilysin (SLY) (Streptococcus suis, UniProt Q55996); assay: Inhibition of the haemolytic activity of Suilysin; type: cell-based; details: toxin SLY; haemolysis assay protocol of Section A
Chain of Suilysin (SLY) (Q55996 28-497 limits assumed): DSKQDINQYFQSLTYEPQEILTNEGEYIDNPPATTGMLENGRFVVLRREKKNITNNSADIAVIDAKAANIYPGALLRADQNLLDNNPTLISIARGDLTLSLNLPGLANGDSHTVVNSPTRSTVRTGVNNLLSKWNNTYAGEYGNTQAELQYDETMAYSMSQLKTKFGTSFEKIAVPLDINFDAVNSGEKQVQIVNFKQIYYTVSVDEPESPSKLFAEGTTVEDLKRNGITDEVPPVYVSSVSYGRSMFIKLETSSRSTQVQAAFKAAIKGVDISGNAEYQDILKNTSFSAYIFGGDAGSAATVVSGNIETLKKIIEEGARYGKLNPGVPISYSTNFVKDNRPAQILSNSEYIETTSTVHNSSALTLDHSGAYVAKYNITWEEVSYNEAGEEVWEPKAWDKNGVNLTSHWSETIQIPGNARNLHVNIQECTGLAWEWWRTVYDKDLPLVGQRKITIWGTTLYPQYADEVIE

[7] = mice receiving the compound alone; highest concentration of UL1-012 (16 mg/kg i.v. every 6 h)
Anthrolysin O (ALO) = Anthrolysin O (ALO) (Bacillus anthracis, UniProt A0A6L7HHW7); assay: cell-based
Chain of Anthrolysin O (ALO) (A0A6L7HHW7 35-512 limits assumed): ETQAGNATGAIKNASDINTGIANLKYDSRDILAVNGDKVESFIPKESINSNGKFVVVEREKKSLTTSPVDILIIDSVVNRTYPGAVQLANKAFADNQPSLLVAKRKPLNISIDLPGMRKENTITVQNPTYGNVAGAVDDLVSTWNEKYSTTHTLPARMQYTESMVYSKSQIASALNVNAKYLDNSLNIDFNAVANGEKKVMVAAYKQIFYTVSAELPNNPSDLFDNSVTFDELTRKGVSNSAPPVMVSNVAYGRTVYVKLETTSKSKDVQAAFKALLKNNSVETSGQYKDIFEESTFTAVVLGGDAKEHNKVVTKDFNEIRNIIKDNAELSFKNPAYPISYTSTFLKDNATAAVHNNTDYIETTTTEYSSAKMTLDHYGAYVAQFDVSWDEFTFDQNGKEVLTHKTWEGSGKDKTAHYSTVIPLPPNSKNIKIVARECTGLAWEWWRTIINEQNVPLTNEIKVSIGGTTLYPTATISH

[8] = type: in vitro ADME; details: human plasma, 37° C., 10 μM start, prodrug remaining; for [ ] (μM) t0 min. Prodrug (Human): 0 min; for [ ] (μM) t15 min. Prodrug (Human): 15 min; for [ ] (μM) t30 min. Prodrug (Human): 30 min; for [ ] (μM) t60 min. Prodrug (Human): 60 min; for [ ] (μM) t120 min. Prodrug (Human): 120 min
Method: (§4) The samples were then analysed by LC-MS/MS to obtain the amount of active compound appearing and prodrug derivative remaining over time. The mouse plasma assay system is considered to be a good model for human behaviour. Nevertheless data obtained in a human plasma assay system was obtained in some cases.
(§5) Prodrug derivatives were assessed in the mouse and human plasma stability assay at a concentration of 10 μM. Test compounds were diluted in DMSO to a final stock concentration of 10 mM. For the purpose of the assay, the stocks prepared were further diluted in DMSO to a concentration of 400 μM and […] were added to 195 μl of mouse or human plasma (pH 7.4) and then incubated at 37° C. The final concentration of DMSO in the plate was 2.5% (v/v). Reactions were terminated at 0, 15, 30, 60 and 120 min after incubation by adding 400 μl of acetonitrile containing 0.55 μM metoprolol and 1% (v/v) formic acid. The plate was then centrifuged at 3000 rpm, for 45 min, at 4° C. 80 μl of supernatant were transferred into a conical bottom 96 well glass coated plate. 40 μl of water were added prior to analysis for prodrug derivative and active species by LC-MS/MS. This assay was performed by a contract research organisation, Cyprotex Discovery Limited, UK, at the request of the inventors at Leicester.
(§6) (1) The active compound was quantified using a 6 point calibration curve prepared in deactivated mouse and human plasma. (2) The percentage of parent compound remaining at each time point relative to 0 min sample was calculated from LC-MS/MS peak area ratios (compound peak area/internal standard peak area). This percentage was then used to determine the concentration of the parent compound at each time point in reference to the starting concentration (10 μM) at time 0 min.

[9] = Conversion of prodrug derivatives to active inhibitors in mouse plasma; type: in vitro ADME; details: 37° C., 10 μM start, prodrug remaining; for [ ] (μM) t0 min. Prodrug: 0 min; for [ ] (μM) t15 min. Prodrug: 15 min; for [ ] (μM) t30 min. Prodrug: 30 min; for [ ] (μM) t60 min. Prodrug: 60 min; for [ ] (μM) t120 min. Prodrug: 120 min
Method: as §4, §5, §6

[10] = IC50, inhibition of pneumolysin-induced haemolysis of sheep erythrocytes, class symbols of Table 1
[11] = IC50, inhibition of pneumolysin-induced haemolysis of sheep erythrocytes, specific values

T1 sequence (Q04IN8 whole entry): as the sequence (Q04IN8 whole entry) above

| SMILES | IC50 (pneumolysin [1]; [10]) | IC50 (pneumolysin [1]; [11]) | IC50 (Perfringolysin O (PFO)) | IC50 (Streptolysin O (SLO)) | IC50 (Listeriolysin O (LLO)) | IC50 (Suilysin (SLY)) | IC50 (Anthrolysin O (ALO)) | [ ] (μM) t0 min. Prodrug (Human) [8] | [ ] (μM) t15 min. Prodrug (Human) [8] | [ ] (μM) t30 min. Prodrug (Human) [8] | [ ] (μM) t60 min. Prodrug (Human) [8] | [ ] (μM) t120 min. Prodrug (Human) [8] | [ ] (μM) t0 min. Prodrug [9] | [ ] (μM) t15 min. Prodrug [9] | [ ] (μM) t30 min. Prodrug [9] | [ ] (μM) t60 min. Prodrug [9] | [ ] (μM) t120 min. Prodrug [9] | other results |
| --- | --- | --- | --- | --- | --- | --- | --- | --- | --- | --- | --- | --- | --- | --- | --- | --- | --- | --- |
| CCOC(=O)c1c(O)c(O)c(C(=O)N(C)C)n1-c1ccc(OC)cc1 [UL1-012, ethyl 5-(dimethylcarbamoyl)-3,4-dihydroxy-1-(4-methoxyphenyl)-1H-pyrrole-2-carboxylate] | < 10 µM | 0.15 µM | < 10 µM | < 10 µM | < 10 µM | < 10 µM | < 10 µM |  |  |  |  |  |  |  |  |  |  | ciliary beating frequency (CBF) in the presence of bacterial lysate [2]: significantly prevented the drop of the CBF; survival ([3]; 4 mg/kg intravenously every 6 h, up to approximately 40 h after infection, p<0.05, FIG. 5): significant improvement in the survival; survival, mice surviving at endpoint ([3]; 16 mg/kg intravenously every 6 h, 72 h post infection, p<0.05, FIG. 6): 50%; disease score (signs of disease) ([3]; 16 mg/kg intravenously every 6 h, p<0.05 at 30 h, 36 h, 60 h and 66 h post-infection, FIG. 7): significant attenuation of the signs of the disease; ciliary beating frequency (CBF) in the presence of pneumolysin (pneumolysin [4]; UL1-012 1.56 μM-25 μM, FIG. 2.A): No significant loss of the CBF; IC50 (pneumolysin [5]): < 0.4 µM; cytotoxicity (LDH release, compound alone) [6]: does not exhibit cytotoxicity; visible adverse effects [7]: no visible adverse effects |
| CCOC(=O)c1c(OC(=O)C(C)(C)COCCOCCOP(=O)(O)O)c(OC(=O)C(C)(C)COCCOCCOP(=O)(O)O)c(C(=O)N(C)C)n1-c1ccc(OC)cc1 [UL1-117, 2-(dimethylcarbamoyl)-5-(ethoxycarbonyl)-1-(4-methoxyphenyl)-1H-pyrrole-3,4-diyl bis(2,2-dimethyl-3-(2-(2-(phosphonooxy)ethoxy)ethoxy)propanoate)] | 10 to 20 µM |  |  |  |  |  |  | 10 µM | 14.9 µM | 10.1 µM | 4.28 µM | 1.12 µM | 10 µM | 5.92 µM | 4.26 µM | 1.41 µM | 0.21 µM |  |
| CCOC(=O)c1c(OC(=O)C(C)C)c(OC(=O)C(C)C)c(C(=O)N(C)C)n1-c1ccc(OCCOCCOCCOC)cc1 [UL1-098, 2-(dimethylcarbamoyl)-5-(ethoxycarbonyl)-1-(4-(2-(2-(2-methoxyethoxy)ethoxy)ethoxy)phenyl)-1H-pyrrole-3,4-diyl bis(2-methylpropanoate)] |  |  |  |  |  |  |  | 10 µM | 5.42 µM | 3.45 µM | 1.76 µM | 0.65 µM | 10 µM | 0 µM | 0 µM | 0 µM | 0 µM | IC50 (pneumolysin [1]; inhibition of pneumolysin-induced haemolysis of sheep erythrocytes, class symbols of Table 1): > 60 µM |
| CCOC(=O)c1c(O)c(O)c(C(=O)OCC)n1-c1ccc(OC)cc1 [UL2-001, diethyl 3,4-dihydroxy-1-(4-methoxyphenyl)-1H-pyrrole-2,5-dicarboxylate] | < 10 µM | 0.3 µM | < 10 µM | 20 to 60 µM | < 10 µM | < 10 µM | < 10 µM |  |  |  |  |  |  |  |  |  |  | percentage of survival ([3]; 0.8 mg/kg intranasally every 6 h, 36 h to 60 h post-infection, p<0.05, FIG. 9): 60%; ciliary beating frequency (CBF) in the presence of pneumolysin (pneumolysin [4]; UL2-001 2.00 μM, FIG. 3): No significant loss of the CBF |
